Entries after “also recorded” stand apart in the source; their conditions may differ.
Key:
[1] = system: human ovarian cancer cell line OC-10-JCK; test: Anti-tumor test in mice transplanted subcutaneously with tumor (OC-10-JCK); assay type: in vivo; conditions: OC-10-JCK s.c. in mice; 40 mg/kg tail vein three times at 4 day intervals
Experimental: (§1) Human ovarian cancer cell lines OC-10-JCK, OC-11-JCK, and TOGY-18, and a human breast cancer cell line MC-19-JCK were obtained from Central Institute for Experimental Animals. Cryopreserved tumor pieces were thawed, and then OC-10-JCK, OC-11-JCK, and MC-19-JCK were transplanted subcutaneously to SCID mice, while TOGY-18 was transplanted subcutaneously to nude mice. After the tumors were grown, the tumors were removed and cut into tumor pieces. The tumor pieces were transplanted subcutaneously to SCID mice or nude mice with trocars. The tumors were maintained by repeated transplantation in the same manner as described above to prepare tumors to be transplanted. Human ovarian cancer cell lines ES-2, SK-OV-3, OV-90, and TOV-21G, and a human lung cancer cell line NCI-H1975 were obtained from American Type Culture Collection (ATCC). The SK-OV-3 and NCI-H1975 cell lines were grown in recommended culture media, of which about 1×10^7 cells were suspended into HBSS and then injected subcutaneously to SCID mice. After the cells formed tumors, the tumors were removed and cut into tumor pieces. The tumor pieces were transplanted subcutaneously to SCID mice with trocars. The tumors were maintained by repeated transplantation in the same manner as described above to prepare tumors to be transplanted. […]

[2] = system: human ovarian cancer cells SHIN-3; test: Anti-tumor test in mice transplanted subcutaneously with tumor (SHIN-3); assay type: in vivo; conditions: SHIN-3 s.c. in mice
Experimental: as §1

Question: With CC(C)c1cc(-c2n[nH]c(=O)n2-c2ccc(CN3CCN(C)CC3)cc2)c(O)cc1O [A-1, 5-(2,4-dihydroxy-5-isopropyl-phenyl)-4-[4-(4-methyl-piperazin-1-ylmethyl)-phenyl]-2,4-dihydro-[1,2,4]triazol-3-one] as the compound, how does the “T/C % (lowest value from the beginning to the 21st day of administration)” value [1] read?
Answer: The value was 50.2%.

Question: And the “anti-tumor effect (in words)” value [2]?
Answer: Its value is “hardly effective; also recorded: lowly effective”.

Question: What about the “T/C % (lowest value from the beginning to the 21st day of administration)” value ([2]; 40 mg/kg tail vein three times at 4 day intervals) of the same compound?
Answer: Its value is 78.1%.

Reference: patent publication US20160313301A1, “METHOD FOR PREDICTING ANTITUMOR EFFICACY OF HSP90 INHIBITOR IN CANCER TREATMENT” (NIPPON KAYAKU KABUSHIKI KAISHA, priority 2013, published 2016)
